For one assay, the target named is MmCLK1 (Mus musculus, UniProt P22518). The assay can be described thus: ADP-Glo kinase assay. The format is biochemical, Mus musculus (Mm). Here is the method:
(§1) Kinase activities were determined using the ADP-Glo methodology (ADP-Glo Kinase Assay; Promega) according to the assay described by Nguyen et al.[32] except for MmCLK1. The later was assayed in the following buffer: 10 mM MgCl2, 1 mM EGTA, 1 mM DTT, 25 mM Tris-HCl pH 7.5, 50 µg/ml heparin, 0.15 mg/ml BSA, with 0.027 µg/µl of the following peptide: GRSRSRSRSRSR as substrate.
(In general: In ADP-Glo the light output rises with the ADP produced.)

In another assay the test system is RPE1 cell line. The assay can be described thus: Cell viability MTS assay, dose-response. The format is cell-based. The note with it: Homo sapiens, RPE-1; 48 h, MTS assay in triplicate, doses up to 50 µM. Here is the method:
(§2) HCT116 cells were cultured in McCoy’s medium. SH-SY5Y, MDA-MB231 and U-2 OS cells were cultured in Dulbecco's modified Eagle's medium (DMEM) and hTERT RPE-1 cells in DMEM:F12 medium. All media were supplemented with 10% foetal calf serum and cells were cultured at 37 °C in a 5% CO2 humidified atmosphere.
(§3) Cell viability was then assessed using the CellTiter96 AQueous cell proliferation assay from Promega according to the manufacturer’s instructions. Each experiment was done in triplicate and EC50 were determined from the dose-response curves according to the signal given by the control (0.1% DMSO) set at 100% viability using Prism GraphPad software.

Another assay deals with U-2 OS cell line. The assay can be described thus: Cell viability MTS assay, dose-response. The class given is cell-based. The conditions noted are these: Homo sapiens, U2OS; 48 h, MTS assay in triplicate, doses up to 50 µM. Here is the method: as §2, §3
A general note: Formazan colour is commonly taken as a measure of viable cells.

For a further assay, the target named is T1, CDK16 (PCTK1)/cyclin Y (Homo sapiens, UniProt Q00536).
T1 construct: purchased Life Technologies
Briefly: LanthaScreen Binding - Eu-anti-GST. The note with it: read-out: Percentage of inhibition. Here is the method:
(§4) We further evaluated the selectivity profile of compound 55 on a larger panel of kinases (SelectScreen Whole Panel, Life Technologies). The inhibition profile of 55, evaluated at 1 μM, is depicted on a dendrogram on Figure 3 where kinases inhibited by a minimum of 80% are shown. A full list of the kinases tested is shown on Table S1 in supplementary information.

The target in the next assay is T2, RAF1 (cRAF) Y340D Y341D (Homo sapiens, UniProt P04049, Y340D/Y341D).
T2 construct: purchased Life Technologies
The assay can be described thus: LanthaScreen Binding - Eu-anti-GST. The note with it: read-out: Percentage of inhibition. Here is the method: as §4
(TR-FRET usually uses a lanthanide donor and a delayed reading to cut background.)

A further assay deals with T3, TTK (Homo sapiens, UniProt P33981).
T3 construct: purchased Life Technologies
The assay can be described thus: LanthaScreen Binding - Eu-anti-GST. The note with it: read-out: Percentage of inhibition. Here is the method:
as §4

A further assay deals with FGFR1 V561M (Homo sapiens, UniProt P11362, V561M). The assay can be described thus: LanthaScreen Binding - Eu-anti-GST. The conditions noted are these: read-out: Percentage of inhibition. Here is the method:
as §4

The target of a further assay is HsPIM1 (Homo sapiens, UniProt P11309). Briefly: ADP-Glo kinase assay. The class given is biochemical, Homo sapiens (Hs). The note with it: mean n = 2, % of maximum activity of DMSO control, read-out: % Residual activity at 1 μM PIM1. Here is the method: as §1
The next assay addresses HsCdk2/Cyc A (Homo sapiens, UniProt P24941). The assay can be described thus: ADP-Glo kinase assay. The format is biochemical, Homo sapiens (Hs). The note with it: mean n = 2, % of maximum activity of DMSO control, read-out: % Residual activity at 1 μM CDK2. Here is the method: as §1
In another assay the target is HsGSK3β (Homo sapiens, UniProt P49841). Briefly: ADP-Glo kinase assay. The format is biochemical, Homo sapiens (Hs). The conditions noted are these: mean n = 2, % of maximum activity of DMSO control, read-out: % Residual activity at 1 μM GSK3β. Here is the method:
as §1

In the next assay the target is HsCdk5/p25 (Homo sapiens, UniProt Q00535). The assay can be described thus: ADP-Glo kinase assay. The note with it: mean n = 2, % of maximum activity of DMSO control, read-out: % Residual activity at 1 μM CDK5. The format is biochemical, Homo sapiens (Hs). Here is the method: as §1
In the next assay the target is T4, HsHaspin (Homo sapiens, UniProt Q8TF76).
T4 sequence (Q8TF76 1-798): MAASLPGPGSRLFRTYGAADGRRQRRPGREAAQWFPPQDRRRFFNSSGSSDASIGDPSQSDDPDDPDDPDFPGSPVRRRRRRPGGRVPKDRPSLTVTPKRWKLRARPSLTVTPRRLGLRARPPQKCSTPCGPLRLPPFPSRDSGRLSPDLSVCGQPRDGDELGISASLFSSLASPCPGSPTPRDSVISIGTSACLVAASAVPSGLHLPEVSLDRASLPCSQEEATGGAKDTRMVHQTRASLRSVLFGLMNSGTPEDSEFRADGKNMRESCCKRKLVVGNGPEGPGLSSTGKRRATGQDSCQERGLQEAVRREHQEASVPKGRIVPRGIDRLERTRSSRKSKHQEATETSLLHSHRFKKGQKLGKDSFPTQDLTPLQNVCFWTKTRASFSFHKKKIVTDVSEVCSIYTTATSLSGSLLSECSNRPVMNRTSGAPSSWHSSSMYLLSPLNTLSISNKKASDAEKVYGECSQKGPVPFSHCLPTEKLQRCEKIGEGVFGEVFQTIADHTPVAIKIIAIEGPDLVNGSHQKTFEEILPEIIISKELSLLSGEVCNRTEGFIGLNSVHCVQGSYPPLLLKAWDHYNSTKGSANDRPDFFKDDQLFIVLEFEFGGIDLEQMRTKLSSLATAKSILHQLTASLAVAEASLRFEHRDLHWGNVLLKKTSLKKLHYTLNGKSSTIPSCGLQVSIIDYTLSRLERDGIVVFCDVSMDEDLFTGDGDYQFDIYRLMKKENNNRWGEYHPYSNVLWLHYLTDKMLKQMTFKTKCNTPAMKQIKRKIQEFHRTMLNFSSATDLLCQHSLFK
Briefly: ADP-Glo kinase assay. The format is biochemical, Homo sapiens (Hs). Here is the method:
as §1

In the next assay the test system is U-2 OS cells. Briefly: Cell cycle analysis by flow cytometry. The class given is cell-based, human. The note with it: 1 µM, 24 h. Here is the method:
After treatment with the compounds, cells were trypsinized and washed once in PBS. Cells were fixed for 1 h in ice-cold 70% ethanol, then washed once in PBS, centrifuged at 200 g and resuspended in a PBS buffer containing 100 µg/ml RNase A (Thermo Scientific) and 40 µg/ml propidium iodide (Life Technologies). DNA content was determined using a flow cytometer Attune^TM NxT (Thermofisher) and ten thousand events were collected in each run. The data were analysed using FCS Express 7 Pro software (De Novo).

The test system of another assay is panel of 486 kinases. The assay can be described thus: SelectScreen Whole Panel selectivity profile. The format is biochemical. The note with it: 1 µM. Here is the method:
as §4

These results are taken from paper PMC9186362, “Design and biological evaluation of substituted 5,7-dihydro-6H-indolo[2,3-c]quinolin-6-one as novel selective Haspin inhibitors” (Journal of Enzyme Inhibition and Medicinal Chemistry, 2022).

Sequence of MmCLK1 (P22518 whole entry): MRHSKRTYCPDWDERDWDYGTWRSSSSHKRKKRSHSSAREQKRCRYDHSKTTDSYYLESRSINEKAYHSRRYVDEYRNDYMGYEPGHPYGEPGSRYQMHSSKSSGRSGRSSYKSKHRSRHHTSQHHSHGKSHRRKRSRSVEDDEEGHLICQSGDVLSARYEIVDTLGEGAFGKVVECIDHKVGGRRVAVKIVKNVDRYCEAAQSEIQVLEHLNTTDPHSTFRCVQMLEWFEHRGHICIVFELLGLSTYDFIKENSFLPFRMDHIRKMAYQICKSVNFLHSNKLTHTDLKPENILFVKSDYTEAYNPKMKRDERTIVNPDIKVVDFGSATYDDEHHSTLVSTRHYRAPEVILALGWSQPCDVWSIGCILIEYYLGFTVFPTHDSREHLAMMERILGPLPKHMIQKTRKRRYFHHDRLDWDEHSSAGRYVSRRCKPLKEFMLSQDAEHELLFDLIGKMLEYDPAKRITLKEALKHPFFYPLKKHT
Sequence of FGFR1 V561M (P11362 22-822 V561M): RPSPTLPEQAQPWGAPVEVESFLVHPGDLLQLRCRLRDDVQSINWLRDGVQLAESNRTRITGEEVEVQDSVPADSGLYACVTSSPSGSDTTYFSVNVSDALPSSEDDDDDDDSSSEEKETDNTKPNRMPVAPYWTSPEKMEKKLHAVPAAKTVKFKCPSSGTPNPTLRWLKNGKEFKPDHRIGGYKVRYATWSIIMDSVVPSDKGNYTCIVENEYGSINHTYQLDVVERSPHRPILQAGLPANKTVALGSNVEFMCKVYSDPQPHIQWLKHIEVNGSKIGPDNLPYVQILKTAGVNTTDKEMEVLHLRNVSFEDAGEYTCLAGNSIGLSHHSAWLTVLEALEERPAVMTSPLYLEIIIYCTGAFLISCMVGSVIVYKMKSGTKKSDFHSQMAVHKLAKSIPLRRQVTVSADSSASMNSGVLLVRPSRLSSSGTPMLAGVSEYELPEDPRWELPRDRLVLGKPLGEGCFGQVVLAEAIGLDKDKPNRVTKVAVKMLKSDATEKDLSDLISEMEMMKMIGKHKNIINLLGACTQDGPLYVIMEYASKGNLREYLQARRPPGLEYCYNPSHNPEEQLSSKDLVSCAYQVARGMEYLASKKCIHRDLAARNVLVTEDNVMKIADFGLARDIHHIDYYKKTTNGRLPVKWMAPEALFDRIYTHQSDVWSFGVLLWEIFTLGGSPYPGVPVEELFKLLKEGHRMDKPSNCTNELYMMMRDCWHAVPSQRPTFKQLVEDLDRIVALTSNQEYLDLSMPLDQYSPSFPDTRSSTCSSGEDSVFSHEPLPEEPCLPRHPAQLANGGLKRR
T1 sequence (Q00536 whole entry): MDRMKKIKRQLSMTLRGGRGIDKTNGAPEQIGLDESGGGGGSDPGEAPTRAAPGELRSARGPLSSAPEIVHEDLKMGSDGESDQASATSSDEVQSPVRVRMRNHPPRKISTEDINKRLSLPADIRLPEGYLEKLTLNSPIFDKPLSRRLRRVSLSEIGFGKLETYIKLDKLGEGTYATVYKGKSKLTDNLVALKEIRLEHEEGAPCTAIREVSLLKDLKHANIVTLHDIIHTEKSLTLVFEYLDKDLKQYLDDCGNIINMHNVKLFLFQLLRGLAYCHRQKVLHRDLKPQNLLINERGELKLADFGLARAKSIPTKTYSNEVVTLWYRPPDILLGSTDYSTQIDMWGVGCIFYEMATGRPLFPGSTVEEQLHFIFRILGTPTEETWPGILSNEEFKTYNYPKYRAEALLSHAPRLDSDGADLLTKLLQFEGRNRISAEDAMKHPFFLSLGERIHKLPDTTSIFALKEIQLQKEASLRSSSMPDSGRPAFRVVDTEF
T1 sequence (Q8ND76 whole entry partner): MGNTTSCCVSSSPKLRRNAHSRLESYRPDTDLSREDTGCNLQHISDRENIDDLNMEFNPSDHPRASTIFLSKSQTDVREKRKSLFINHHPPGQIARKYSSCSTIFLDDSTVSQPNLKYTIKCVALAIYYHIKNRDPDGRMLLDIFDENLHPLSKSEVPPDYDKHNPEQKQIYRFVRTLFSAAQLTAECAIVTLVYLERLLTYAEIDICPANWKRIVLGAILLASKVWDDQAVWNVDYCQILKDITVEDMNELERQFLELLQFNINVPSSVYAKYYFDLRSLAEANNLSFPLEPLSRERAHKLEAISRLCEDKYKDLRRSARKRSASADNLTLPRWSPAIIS
Sequence of HsGSK3β (P49841 whole entry): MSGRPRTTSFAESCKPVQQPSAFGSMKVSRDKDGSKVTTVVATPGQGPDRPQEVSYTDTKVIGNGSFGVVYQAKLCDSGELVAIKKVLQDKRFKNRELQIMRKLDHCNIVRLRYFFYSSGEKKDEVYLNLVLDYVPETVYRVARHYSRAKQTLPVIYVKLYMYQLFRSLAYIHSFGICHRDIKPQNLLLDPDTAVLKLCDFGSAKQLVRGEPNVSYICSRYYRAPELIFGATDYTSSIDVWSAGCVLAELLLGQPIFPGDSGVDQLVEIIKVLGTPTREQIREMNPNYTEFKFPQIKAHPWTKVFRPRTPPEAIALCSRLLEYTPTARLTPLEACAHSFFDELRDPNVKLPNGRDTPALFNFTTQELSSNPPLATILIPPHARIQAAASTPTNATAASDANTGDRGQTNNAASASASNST
Sequence of HsPIM1 (P11309 whole entry): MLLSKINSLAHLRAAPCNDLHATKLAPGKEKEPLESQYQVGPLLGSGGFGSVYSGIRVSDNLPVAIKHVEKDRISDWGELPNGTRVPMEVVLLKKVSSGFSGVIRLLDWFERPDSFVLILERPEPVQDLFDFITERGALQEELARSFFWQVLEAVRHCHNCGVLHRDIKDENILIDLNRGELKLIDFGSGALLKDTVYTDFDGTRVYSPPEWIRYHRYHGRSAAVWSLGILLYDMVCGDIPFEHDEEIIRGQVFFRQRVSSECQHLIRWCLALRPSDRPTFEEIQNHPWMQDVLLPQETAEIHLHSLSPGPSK
T3 sequence (P33981 whole entry): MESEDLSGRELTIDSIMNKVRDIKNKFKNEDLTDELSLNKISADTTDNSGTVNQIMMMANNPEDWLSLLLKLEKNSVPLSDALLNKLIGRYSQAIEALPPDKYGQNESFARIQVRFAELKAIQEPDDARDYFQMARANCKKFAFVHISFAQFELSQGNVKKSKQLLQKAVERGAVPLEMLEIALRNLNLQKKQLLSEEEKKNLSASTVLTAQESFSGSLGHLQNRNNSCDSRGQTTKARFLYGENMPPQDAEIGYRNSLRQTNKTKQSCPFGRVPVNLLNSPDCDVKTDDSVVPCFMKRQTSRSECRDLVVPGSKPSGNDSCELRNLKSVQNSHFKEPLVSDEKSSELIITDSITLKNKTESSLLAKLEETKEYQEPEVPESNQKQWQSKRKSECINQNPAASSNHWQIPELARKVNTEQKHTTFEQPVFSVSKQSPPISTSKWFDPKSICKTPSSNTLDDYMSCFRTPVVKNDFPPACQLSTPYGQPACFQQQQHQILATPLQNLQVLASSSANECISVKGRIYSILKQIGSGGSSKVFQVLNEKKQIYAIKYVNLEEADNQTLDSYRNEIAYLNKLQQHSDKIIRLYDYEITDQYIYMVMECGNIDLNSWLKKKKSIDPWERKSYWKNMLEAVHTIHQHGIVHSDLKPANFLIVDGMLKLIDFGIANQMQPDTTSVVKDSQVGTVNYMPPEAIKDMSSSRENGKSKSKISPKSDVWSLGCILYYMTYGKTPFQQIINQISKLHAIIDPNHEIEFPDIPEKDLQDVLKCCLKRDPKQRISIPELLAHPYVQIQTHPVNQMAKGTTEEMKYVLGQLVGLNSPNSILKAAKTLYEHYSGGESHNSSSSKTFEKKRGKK
Sequence of HsCdk5/p25 (Q00535 whole entry): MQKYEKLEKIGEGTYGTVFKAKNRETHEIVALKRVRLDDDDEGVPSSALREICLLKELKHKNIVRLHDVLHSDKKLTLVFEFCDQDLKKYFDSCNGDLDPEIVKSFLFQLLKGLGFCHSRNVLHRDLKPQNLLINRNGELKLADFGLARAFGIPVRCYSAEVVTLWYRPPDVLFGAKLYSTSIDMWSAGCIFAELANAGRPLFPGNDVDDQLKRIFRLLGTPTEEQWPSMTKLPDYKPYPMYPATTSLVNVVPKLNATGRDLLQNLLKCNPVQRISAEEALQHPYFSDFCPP
Sequence of HsCdk5/p25 (Q15078 99-307 partner limits assumed): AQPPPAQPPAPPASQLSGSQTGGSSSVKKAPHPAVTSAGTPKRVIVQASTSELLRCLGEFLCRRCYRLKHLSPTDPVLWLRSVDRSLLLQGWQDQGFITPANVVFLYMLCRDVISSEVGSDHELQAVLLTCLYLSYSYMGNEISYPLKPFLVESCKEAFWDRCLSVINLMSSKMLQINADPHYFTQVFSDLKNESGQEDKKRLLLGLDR
T2 sequence (P04049 whole entry Y340D/Y341D): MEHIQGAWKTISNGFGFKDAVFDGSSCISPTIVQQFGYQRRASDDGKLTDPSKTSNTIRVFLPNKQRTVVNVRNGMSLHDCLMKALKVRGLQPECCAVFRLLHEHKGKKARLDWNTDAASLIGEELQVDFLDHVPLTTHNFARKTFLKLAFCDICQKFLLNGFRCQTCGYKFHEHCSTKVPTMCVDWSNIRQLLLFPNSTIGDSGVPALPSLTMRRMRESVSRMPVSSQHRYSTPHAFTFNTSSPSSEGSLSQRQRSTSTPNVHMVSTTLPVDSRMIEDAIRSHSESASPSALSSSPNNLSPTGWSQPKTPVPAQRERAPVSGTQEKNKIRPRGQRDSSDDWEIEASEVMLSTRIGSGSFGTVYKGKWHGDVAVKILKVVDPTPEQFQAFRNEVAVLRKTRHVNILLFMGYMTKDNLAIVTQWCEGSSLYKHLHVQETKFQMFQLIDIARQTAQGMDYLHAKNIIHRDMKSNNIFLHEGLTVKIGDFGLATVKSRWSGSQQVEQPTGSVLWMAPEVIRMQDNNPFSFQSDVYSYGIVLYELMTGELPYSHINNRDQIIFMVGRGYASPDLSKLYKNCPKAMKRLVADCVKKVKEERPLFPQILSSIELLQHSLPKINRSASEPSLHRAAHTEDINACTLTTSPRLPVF

`COc1ccc2[nH]c3c(=O)[nH]c4ccc(O)cc4c3c2c1` [Compound 55, 2-Hydroxy-10-methoxy-5,7-dihydro-6H-indolo[2,3-c]quinolin-6-one]: the remaining activity at 1 µM on MmCLK1 (1 μM, mean n = 2, % of maximum activity of DMSO control, read-out: % Residual activity at 1 μM CLK1) was found to be 14%; on HsPIM1, 22%; at HsCdk2/Cyc A, 38%; at HsGSK3β, 20%; on HsCdk5/p25, 53%; on HsHaspin (1 μM, mean n = 2, % of maximum activity of DMSO control, read-out: % Residual activity at 1 μM Haspin), 0%. Moreover, at MmCLK1 (IC50 CLK1/IC50 Haspin), the “Selectivity index CLK1/Haspin” value was determined as 17. Also, the IC50 at MmCLK1 (dose-response curve, each point in duplicate, read-out: Kinase inhibition (IC50) CLK1) was determined as 33 nM; at HsHaspin (dose-response curve, each point in duplicate, read-out: Kinase inhibition (IC50) Haspin) it was 2 nM. The EC50 was determined as 10700 nM in the assay with RPE1 cell line and 3400 nM in the assay with U-2 OS cell line. The inhibition at 1 µM was 38% on CDK16 (PCTK1)/cyclin Y, 4% on RAF1 (cRAF) Y340D Y341D, 42% at TTK and 60% on FGFR1 V561M. Further, the “% of cycling cells G2/M” value in the assay on U-2 OS cells (DMSO control 6%) is on record as 20%. Besides, the “% of cycling cells S” value in the assay on U-2 OS cells (DMSO control 44%) worked out at 44%. In addition, the “% of cycling cells G1” value in the assay on U-2 OS cells (DMSO control 50%) is on record as 36%. Moreover, the “Number of the 486 kinases inhibited by >50%” value in the assay with panel of 486 kinases is listed as 159.

The IC50 is the concentration that inhibits the measured activity by half. The term EC50 denotes the midpoint of the concentration-response curve. Low values mean a more potent agent, high ones a less potent agent. Usually inhibition stands for the share of the control response that was lost under treatment.
